In patent EP4707277A1, “NOVEL HETEROCYCLIC AMINE DERIVATIVES AND PHARMACEUTICAL COMPOSITION COMPRISING SAME” (Daewoong Pharmaceutical Co., Ltd., priority 2023, dated 2024):

Tests used:
[1] = molecular target: T1, BTK (Homo sapiens, UniProt Q06187); test: Inhibitory activity against BTK, ADP-Glo Kinase system (Promega); type: biochemical; details: 1mM ATP; read-out: BTK IC50(nM) 1mM ATP
T1 construct: purchased Signalchem B10-10H
Summary of the method: (§1)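 IC50 values were fitted from kinase reactions run for 1 h at 30°C with either 1 mM ATP or ATP at Km (10 µM for BTK, 25 µM for ITK). Reactions used 0.2 µg/µl poly(Glu4,Tyr1), recombinant human enzyme (BTK 10 ng, ITK 4 ng per reaction) in Tris pH 7.5 Mn/Mg buffer with 1% DMSO. ADP formed was read by ADP-Glo luminescence.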

[2] = molecular target: T2, ITK (Homo sapiens, UniProt Q08881); test: Inhibitory activity against ITK, ADP-Glo Kinase system (Promega); type: biochemical; details: 1mM ATP; read-out: ITK IC50(nM) 1mM ATP
T2 construct: purchased Signalchem I13-11G-10
T2 sequence (Q08881 1-620): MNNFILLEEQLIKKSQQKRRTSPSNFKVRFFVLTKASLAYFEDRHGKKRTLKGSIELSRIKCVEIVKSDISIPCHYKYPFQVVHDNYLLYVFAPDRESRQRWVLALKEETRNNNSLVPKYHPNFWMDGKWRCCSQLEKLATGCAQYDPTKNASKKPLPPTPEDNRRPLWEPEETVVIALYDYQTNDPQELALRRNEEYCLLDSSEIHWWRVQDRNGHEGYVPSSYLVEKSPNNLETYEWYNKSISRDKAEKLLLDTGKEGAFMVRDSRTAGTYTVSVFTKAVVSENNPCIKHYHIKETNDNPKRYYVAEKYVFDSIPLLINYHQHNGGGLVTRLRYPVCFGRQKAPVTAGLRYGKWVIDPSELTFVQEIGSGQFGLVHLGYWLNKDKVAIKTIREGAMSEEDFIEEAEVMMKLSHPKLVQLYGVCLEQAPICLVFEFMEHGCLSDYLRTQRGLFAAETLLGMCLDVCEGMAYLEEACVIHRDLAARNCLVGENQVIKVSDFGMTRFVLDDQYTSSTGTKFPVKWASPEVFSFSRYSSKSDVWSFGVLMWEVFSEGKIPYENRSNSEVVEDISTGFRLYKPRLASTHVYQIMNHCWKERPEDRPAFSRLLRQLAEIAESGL
Summary of the method: as §1

T1 sequence (Q06187 whole entry): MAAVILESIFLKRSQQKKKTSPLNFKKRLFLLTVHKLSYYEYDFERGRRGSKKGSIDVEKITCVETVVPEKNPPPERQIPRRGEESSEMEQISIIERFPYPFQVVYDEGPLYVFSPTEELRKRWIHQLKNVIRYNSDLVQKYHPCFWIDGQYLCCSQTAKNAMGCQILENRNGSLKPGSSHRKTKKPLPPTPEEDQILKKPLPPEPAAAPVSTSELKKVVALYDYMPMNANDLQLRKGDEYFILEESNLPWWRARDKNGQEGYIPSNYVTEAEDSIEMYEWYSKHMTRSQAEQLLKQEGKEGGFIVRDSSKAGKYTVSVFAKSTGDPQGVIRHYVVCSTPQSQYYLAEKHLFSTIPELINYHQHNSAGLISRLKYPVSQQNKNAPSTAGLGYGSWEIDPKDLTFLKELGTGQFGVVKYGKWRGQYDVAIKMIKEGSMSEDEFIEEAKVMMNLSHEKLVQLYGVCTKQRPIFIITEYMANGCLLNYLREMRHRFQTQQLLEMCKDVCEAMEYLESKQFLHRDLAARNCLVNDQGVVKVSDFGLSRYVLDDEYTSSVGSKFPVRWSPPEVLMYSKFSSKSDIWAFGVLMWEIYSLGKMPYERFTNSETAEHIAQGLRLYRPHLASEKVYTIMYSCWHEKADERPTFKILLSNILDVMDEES

Q: For `C=CC(=O)N1CCC[C@H]1COc1nc(Nc2ncc(C)s2)cc2c1ccn2CC1CCCC1` [Example 220, (S)-1-(2-(((1-(cyclopentylmethyl)-6-((5-methylthiazol-2-yl)amino)-1H-pyrrolo[3,2-c]pyridin-4-yl)oxy)methyl)pyrrolidin-1-yl)prop-2-en-1-one], which IC50 [1] is on record?
A: The IC50 was ≤ 20 nM.

Q: And the IC50 [2]?
A: The IC50 was 20 to 100 nM.

Q: Which results are given for `C=CC(=O)N1CCC[C@H]1COc1nc(Nc2ncc(C)s2)cc2c1ccn2CC(C)CC` (stereo partly drawn) [Example 221, 1-((2S)-2-(((1-(2-methylbutyl)-6-((5-methylthiazol-2-yl)amino)-1H-pyrrolo[3,2-c]pyridin-4-yl)oxy)methyl)pyrrolidin-1-yl)prop-2-en-1-one]?
A: IC50 [1]: ≤ 20 nM; IC50 [2]: 20 to 100 nM

Q: With `C=CC(=O)N1CCC[C@H]1COc1nc(Nc2ncc(C)s2)cc2c1ccn2C1CCCC1` [Example 222, (S)-1-(2-(((1-cyclopentyl-6-((5-methylthiazol-2-yl)amino)-1H-pyrrolo[3,2-c]pyridin-4-yl)oxy)methyl)pyrrolidin-1-yl)prop-2-en-1-one] as the compound, how does the IC50 [1] read?
A: The IC50 was ≤ 20 nM.

Q: And the IC50 [2]?
A: The IC50 was 20 to 100 nM.

Q: Which IC50 [1] does the source give for `C=CC(=O)N1CC[C@@H]1COc1nc(Nc2ncc(C)s2)cc2c1ccn2C1CCCC1` [Example 223, (R)-1-(2-(((1-cyclopentyl-6-((5-methylthiazol-2-yl)amino)-1H-pyrrolo[3,2-c]pyridin-4-yl)oxy)methyl)azetidin-1-yl)prop-2-en-1-one] here?
A: The IC50 was ≤ 20 nM.

Q: What about the IC50 [2] of the same compound?
A: The IC50 was ≤ 20 nM.

Q: What does the source list for `C=C(F)C(=O)N1CC[C@H](Oc2nc(Nc3ncc(C)s3)cc3c2ccn3CC(C)C)C1` [Example 224, (S)-2-fluoro-1-(3-((1-isobutyl-6-((5-methylthiazol-2-yl)amino)-1H-pyrrolo[3,2-c]pyridin-4-yl)oxy)pyrrolidin-1-yl)prop-2-en-1-one]?
A: IC50 [1]: > 500 nM; IC50 [2]: > 500 nM

Q: What does the source list for `C#CC(=O)N1CC[C@H](Oc2nc(Nc3ncc(C)s3)cc3c2ccn3CC(C)C)C1` [Example 225, (S)-1-(3-((1-isobutyl-6-((5-methylthiazol-2-yl)amino)-1H-pyrrolo[3,2-c]pyridin-4-yl)oxy)pyrrolidin-1-yl)prop-2-yn-1-one]?
A: IC50 [1]: ≤ 20 nM; IC50 [2]: ≤ 20 nM

Q: Which results are given for `C/C=C/C(=O)N1CC[C@H](Oc2nc(Nc3ncc(C)s3)cc3c2ccn3CC(C)C)C1` [Example 226, (S,E)-1-(3-((1-isobutyl-6-((5-methylthiazol-2-yl)amino)-1H-pyrrolo[3,2-c]pyridin-4-yl)oxy)pyrrolidin-1-yl)but-2-en-1-one]?
A: IC50 [1]: > 500 nM; IC50 [2]: > 500 nM

Q: Which IC50 [1] does the source give for `Cc1cnc(Nc2cc3c(ccn3CC(C)C)c(O[C@H]3CCN(C(=O)/C=C/CN(C)C)C3)n2)s1` [Example 227, (S,E)-4-(dimethylamino)-1-(3-((1-isobutyl-6-((5-methylthiazol-2-yl)amino)-1H-pyrrolo[3,2-c]pyridin-4-yl)oxy)pyrrolidin-1-yl)but-2-en-1-one] here?
A: The IC50 was > 500 nM.

Q: What about the IC50 [2] of the same compound?
A: The IC50 was > 500 nM.

Q: Which IC50 [1] does the source give for `C=CS(=O)(=O)N1C[C@H](F)[C@H](Oc2nc(Nc3ncc(C)s3)cc3c2ccn3CC(C)C)C1` [Example 228, N-(4-(((3R,4S)-4-fluoro-1-(vinylsulfonyl)pyrrolidin-3-yl)oxy)-1-isobutyl-1H-pyrrolo[3,2-c]pyridin-6-yl)-5-methylthiazol-2-amine] here?
A: The IC50 was ≤ 20 nM.

Q: And the IC50 [2]?
A: Its IC50 is ≤ 20 nM.

Q: Which results are given for `Cc1cnc(Nc2cc3c(ccn3CC(C)C)c(O[C@@H]3CN(C(=O)CCl)C[C@@H]3F)n2)s1` [Example 229, 2-chloro-1-((3S,4R)-3-fluoro-4-((1-isobutyl-6-((5-methylthiazol-2-yl)amino)-1H-pyrrolo[3,2-c]pyridin-4-yl)oxy)pyrrolidin-1-yl)ethan-1-one]?
A: IC50 [1]: 20 to 100 nM; IC50 [2]: ≤ 20 nM

Q: How did the IC50 [1] turn out when `CC#CC(=O)N1C[C@H](F)[C@H](Oc2nc(Nc3ncc(C)s3)cc3c2ccn3CC(C)C)C1` [Example 230, 1-((3S,4R)-3-fluoro-4-((1-isobutyl-6-((5-methylthiazol-2-yl)amino)-1H-pyrrolo[3,2-c]pyridin-4-yl)oxy)pyrrolidin-1-yl)but-2-yn-1-one] was run?
A: The IC50 was > 500 nM.

Q: What about the IC50 [2] of the same compound?
A: Its IC50 is > 500 nM.

Q: `C#CC(=O)N1C[C@H](F)[C@H](Oc2nc(Nc3ncc(C)s3)cc3c2ccn3CC(C)C)C1` [Example 231, 1-((3S,4R)-3-fluoro-4-((1-isobutyl-6-((5-methylthiazol-2-yl)amino)-1H-pyrrolo[3,2-c]pyridin-4-yl)oxy)pyrrolidin-1-yl)prop-2-yn-1-one] was tested. Which IC50 [1] did it give?
A: Its IC50 is ≤ 20 nM.

Q: What about the IC50 [2] of the same compound?
A: Its IC50 is ≤ 20 nM.
